Experimental data taken from US7169568B2, “Method for screening molecules that exert a neurotrophic effect through activation of neurotrophin receptors” (New York University, priority 2000, dated 2007).

Tests used:
TrkB receptors = experiment: Trk receptor phosphorylation in primary E17 hippocampal neurons (immunoprecipitation, anti-phosphotyrosine Western blot); assay type: cell-based, rat; settings: 10 nM, two hours
Protocol: FIGS. 4A and 4B show Western blots on adenosine activation of Trk receptors in hippocampal neurons. Primary cultures of E17 hippocampal neurons were prepared as described in the Materials and Methods of Example 1 and treated with (FIG. 4A) CGS 21680 (10 nM) or BDNF (1 ng/ml) for various times and (FIG. 4B) either adenosine (10 μM), CGS 21680 (10 nM), CPA (10 nM) or BDNF (10 ng/ml) for 2 hr. Activation of TrkA receptors was assessed by immunoprecipitation and Western blotting with anti-phosphotyrosine antibody.
(§1) Immunoprotection and Immunoblotting. PC12 cells or PC12-615 cells (Hempstead et al, 1992), were maintained in Dulbecco's Modified Eagle's Medium (DMEM) containing 10% fetal bovine serum (FBS) supplemented with 100 units/ml penicillin, 100 μg/ml streptomycin, and 2 mM glutamine plus 200 μg/ml G418. Cells were placed in low serum medium (1% FBS, 0.5% horse serum) overnight prior to experiments. Cell lysates from PC12, 615 cells, or hippocampal cells were incubated in lysis buffer (1% NP40) for 4 hours to overnight at 4° C. with anti-pan-Trk polyclonal antibody, followed by incubation with protein A-Sepharose beads. Equivalent amounts of protein were analyzed for each condition. The beads' were washed five times with lysis buffer and the immune complexes were boiled in SDS-sample buffer and loaded on sodium dodecyl sulfate-polyacrylamide electrophoresis (SDS-PAGE) gels for immunoblot analysis. The immunoreactive protein bands were detected by ECL reagents based upon enhanced chemiluminescence procedure (Amersham Pharmacia).
Hippocampal Cell Cultures. Dissociated primary cultures of hippocampal neurons from embryonic day 17 (E17) rats were prepared from timed-pregnant Sprague-Dawley rats as described previously (Aibel et al, 1998). Fetuses were removed under sterile conditions and kept in PBS on ice for microscopic dissection of the hippocampus. The meninges were removed and the tissue was placed in Neurobasal media (Gibco BRL). […] Cells were counted and then plated on culture wells coated with 0.01 mg/ml poly-D-lysine overnight. […]

TrkA receptors = experiment: TrkA receptor tyrosine phosphorylation in PC12 (615) cells (anti-pan-Trk immunoprecipitation, PY99 anti-phosphotyrosine immunoblot); assay type: cell-based
Protocol: Stably transfected PC12 cells expressing high levels of TrkA (615) were treated with the indicated compounds for 2 hours. The cells were subsequently harvested in lysis buffer as described in the Materials and Methods of Example 1. Lysates were immunoprecipitated with anti-pan Trk rabbit antiserum. Immunocomplexes were analyzed by immunoblotting with anti-phosphotyrosine antibody (PY99).
In FIG. 2A, different concentrations of adenosine were administered to PC12615 cells for 2 hours or NGF (1 ng/ ml) for 10 min. Cells were also treated with CGS21680 at the indicated dose for 2 hours. In FIG. 2B, PC12 cells (615) were treated with adenosine (10 μM) for various times or with 5 ng/ml NGF for 10 min. Phosphorylated TrkA receptors were detected by immunoblot analysis using PY99 anti-phosphotyrosine antibodies. The amount of Trk receptors in each condition was verified by immunoblotting.
In FIG. 3A, PC12 cells (615) were treated with the A2A agonist CGS 21680 (10 nM) and an A1 agonist CPA (10 nM) for 2 hr. ZM 241385 (10 nM), an A2A antagonist, was incubated with the cells for 15 min prior to treatment with adenosine (10 μM) for 2 hours. In FIG. 3B, PC12 cells (615) were incubated with the indicated concentrations of PP1, a Src family kinase inhibitor (Hanke et al, 1996), for 30 min, and then treated with adenosine (10 μM) for 2 hours. Activation of TrkA was assessed by immunoprecipitation and immunoblot analysis using PY99 anti-phosphotyrosine antibody.
In FIG. 7A, different concentrations of PACAP27 were administered to PC12 (615) cells for 2 hours or NGF (5 ng/ml) for 10 min. […] Phosphorylated TrkA receptors were detected by immunoblot analysis using PY99 anti-phosphotyrosine antibodies. The level of Trk receptors for each condition was verified by immunoblotting with anti-Trk antibodies.
as §1
Immunoprecipitated and Immunoblotting. PC12 (615) cells were maintained in DMEM containing 10% FBS supplemented with 100 units/ml penicillin, 100 μg/ml streptomycin, and 2 mM glutamine plus 200 μg/ml G418. Cells were placed in serum free medium overnight before experiments. Cell lysates from PC12(615) cells, or basal forebrain cells were incubated in lysis buffer (1% Nonidet P-40) for 4 hrs to overnight at 4° C. with anti-pan-Trk polyclonal antibody followed by incubation with protein A-Sepharose beads. Equivalent amounts of protein were analyzed for each condition.

hippocampal neurons = experiment: Cell death assay (LDH release), hippocampal neurons after B27 withdrawal; assay type: cell-based, rat; settings: 100 nM, with CGS 21680 (10 nM) upon B27 withdrawal
Protocol: (§2) . In FIG. 6A, NGF-differentiated PC12 cells were prepared and then NGF and serum were withdrawn for 48 hours as described in the Materials and Methods section of Example 1. Upon NGF withdrawal, various concentrations of CGS 21680 (CGS) were added to the media. CON =No Addition. […] In FIG. 6B, hippocampal neurons were prepared and B27 was withdrawn for 48 hrs as described in the Materials and Methods section of Example 1. Upon B27 withdrawal, various concentrations of CGS 21680 (CGS) were added to the media. […] All LDH levels were quantitated and % cell death calculated as described in the Materials and Methods section of Example 1. All bars depict mean+SEM from three independent experiments.
Hippocampal Cell Cultures. Dissociated primary cultures of hippocampal neurons from embryonic day 17 (E17) rats were prepared from timed-pregnant Sprague-Dawley rats as described previously (Aibel et al, 1998). Fetuses were removed under sterile conditions and kept in PBS on ice for microscopic dissection of the hippocampus. The meninges were removed and the tissue was placed in Neurobasal media (Gibco BRL). The tissue was briefly minced with fine forceps and then triturated with a fire polished pasteur pipet. Cells were counted and then plated on culture wells coated with 0.01 mg/ml poly-D-lysine overnight. Hippocampal cells were maintained in Neurobasal media, containing B27 supplement and L-glutamine (0.5 mM). Experiments were conducted 7–10 days after plating.
Hippocampal neurons were maintained in Neurobasal media containing B27 supplement and 0.5 mM L-glutamine for 10 days. B27 was then removed, and adenosine agonists or BDNF (100 ng/ml) was added to the media. MK-801 (1 μM) was added to all conditions, to decrease the contribution of NMDA-mediated cell death. After 48 hrs, cell death was assessed by measurement of LDH released into media.

MAP kinase = MAP kinase activation in PC12 cells (anti-phospho MAP kinase immunoblot); assay type: cell-based; settings: K252a at concentrations that block TrkA signaling (100 nM)
Protocol: as §1, with “PC12 cells (615) were treated with adenosine (10 μM) for various times in the presence or absence of […] (100 nM) or LY294002 (10 μM). The cells were subsequently harvested in lysis buffer; lysates and immunoprecipitated samples were subsequently immunoblotted with anti-phospho MAP kinase, anti-phospho Akt, and anti-phosphotyrosine. Reprobing with anti-MAP kinase and anti-pan-Trk antibodies was carried out to ensure equal protein loading. Immunoprotection” for “Immunoprotection”, “The beads' were washed five times with lysis buffer and the immune complexes were boiled in SDS-sample buffer and loaded on sodium dodecyl sulfate-polyacrylamide electrophoresis (SDS-PAGE) gels for immunoblot analysis.” left out

Akt = Akt activation in PC12 cells (anti-phospho Akt immunoblot); assay type: cell-based
Protocol: as §1, with “PC12 cells (615) were treated with adenosine (10 μM) for various times in the presence or absence of […] (100 nM) or LY294002 (10 μM). The cells were subsequently harvested in lysis buffer; lysates and immunoprecipitated samples were subsequently immunoblotted with anti-phospho MAP kinase, anti-phospho Akt, and anti-phosphotyrosine. Reprobing with anti-MAP kinase and anti-pan-Trk antibodies was carried out to ensure equal protein loading. To assess the activity of Akt, endogenous Akt can be immunoprecipitated from lysates with anti-Akt and the proteins assayed in Western blots with anti-phospho-Akt antibodies. Use of the anti-Akt antibody versus the anti-phospho-Akt antibody on lysates can give a comparative assessment of the relative level of the enzyme and extent of activation (Kim et al., 2001). […]” for “Immunoprotection”

[1] = tested on: NGF-differentiated PC12 cells; experiment: Cell death assay (LDH release), NGF-differentiated PC12 cells after NGF and serum withdrawal; assay type: cell-based
Protocol: as §2, with “FIGS. 6A and 6B show graphs on the trophic effects of adenosine in PC12 and hippocampal cells deprived of neurotrophins. In” for “. In”
Cell Death Assay. PC12 cells were differentiated in Dulbecco's modified Eagle's medium (DMEM), supplemented with 0.33% fetal bovine serum, 0.67% heat-inactivated horse serum, 2 mM L-glutamine and NGF (50 ng/ml) for 7 days. Serum and NGF were then removed, and adenosine agonists or growth factors added to the media. After 48 hrs, cell death was quantified by measuring lactate dehydrogenase (LDH) released from injured cells into the media using the Cytox 96 Cytotoxicity Assay Kit (Promega, Madison, Wis.). LDH values were normalized by subtracting the LDH released by cells maintained in NGF (50 ng/ml) and scaling to a full kill (=100%) reference induced by 5 min treatment with 1% Triton, an exposure that consistently killed all PC12 cells.

OC[C@H]1O[C@@H](n2cnc3c(NC4CCCC4)ncnc32)[C@H](O)[C@@H]1O [CPA, N(6)-cyclopentyladenosine]
Phosphorylation of TrkB receptors (TrkB receptors): did not activate TrkB receptors | Increase in phosphorylated TrkA receptors (TrkA receptors; PC12 (615) cells, 10 nM, 2 hr): no effect

COC(=O)[C@@]1(O)C[C@H]2O[C@]1(C)n1c3ccccc3c3c4c(c5c6ccccc6n2c5c31)C(=O)NC4 [K252a]
Effect on survival action of CGS 21680 (hippocampal neurons): K-252a sensitive | Effect on MAP kinase activity induced by adenosine (MAP kinase): not altered | Effect on Akt activation by adenosine (Akt; pretreatment 100 nM): eliminated | Effect on survival effect of CGS 21680 ([1]; 100 nM, with CGS 21680 (10 nM) upon NGF withdrawal): eliminated the positive effects of CGS 21680 | Effect on survival effects of NGF ([1]; 100 nM, with NGF (50 ng/ml)): reversed the survival effects of NGF

COc1cccc(-c2cc(=O)c3ccccc3o2)c1N [PD98059]
Effect on survival imparted by CGS 21680 ([1]; 25 μM, with CGS 21680 (10 nM)): not found to have any effect

Cc1ccc(-c2nn(C(C)(C)C)c3ncnc(N)c23)cc1 [PP1]
Effect on level of tyrosine phosphorylated TrkA receptors elicited by adenosine (TrkA receptors; 1 μM, 30 min, then adenosine (10 μM) for 2 hours): marked decrease | Effect on tyrosine phosphorylated TrkA receptors elicited by adenosine, concentration dependence (TrkA receptors; increasing concentrations, then adenosine (10 μM) for 2 hours): progressively stronger inhibition

Nc1nc(NCCc2ccc(O)cc2)nc2nc(-c3ccco3)nn12 [ZM 241385, 4-[2-[7-amino-2-(2-furyl)-1,2,4-triazolo[1,5-a](1,3,5)triazin-5-ylamino]ethyl]phenol]
Effect on adenosine-induced phosphorylation of TrkA receptors (TrkA receptors; 10 nM, 15 min prior to adenosine (10 μM) for 2 hours): antagonized the effects of adenosine

CN1CCc2cccc3c2[C@H]1Cc1ccc(O)c(O)c1-3 [apomorphine]
Activation of TrkA receptors (tyrosine phosphorylation) (TrkA receptors; PC12 (615) cells, ligand for 2 hours, adenosine 10 μM): not observed

Pituitary adenylate cyclase activating polypeptide [PACAP]
Akt activity (Akt; PC12 cells, PACAP treatment): stimulated | Concentration range of the effect upon TrkA receptor activity (TrkA receptors; PC12 (615) cells, 2 hours): low nanomolar concentration range | Time required for increase in TrkA activation (TrkA receptors; PC12 (615) cells, PACAP27 1 nM): 2 h
